Experimental data reported in PMC11537999, “Identification of human pregnane X receptor antagonists utilizing a high-throughput screening platform” (Frontiers in Pharmacology, 2024).

Legend:
hPXR [1] = biological target: T1, hPXR (Homo sapiens, UniProt O75469); test: Pharmacological inhibition (IC50 shift) assay with varying rifampicin in HepG2-CYP3A4-hPXR cells; type: cell-based; conditions: for shift in IC50 values with increasing rifampicin (in words): 5 μM, 7.5 µM or 10 µM rifampicin; for decrease in potency: co-treated with 2 µM versus 10 µM rifampicin; for IC50: triplicate
T1 construct: expressed in transfected cells; provided by Dr. Taosheng Chen, St. Jude
T1 sequence (O75469 1-434): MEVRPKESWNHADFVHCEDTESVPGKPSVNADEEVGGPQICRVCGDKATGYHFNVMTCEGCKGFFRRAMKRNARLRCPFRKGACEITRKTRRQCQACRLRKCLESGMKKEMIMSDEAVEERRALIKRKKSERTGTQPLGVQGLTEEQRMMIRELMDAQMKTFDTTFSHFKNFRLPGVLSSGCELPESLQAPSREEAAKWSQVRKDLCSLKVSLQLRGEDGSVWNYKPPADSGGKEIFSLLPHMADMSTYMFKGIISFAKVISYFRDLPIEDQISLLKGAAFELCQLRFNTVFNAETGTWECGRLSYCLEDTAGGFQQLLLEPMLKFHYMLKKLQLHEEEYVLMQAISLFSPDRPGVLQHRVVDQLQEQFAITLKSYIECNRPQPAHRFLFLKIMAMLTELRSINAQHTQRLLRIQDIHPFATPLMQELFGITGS
Procedure: (§1) HepG2-CYP3A4-hPXR cells were dispensed into tissue culture treated 1536-well white assay plates (Greiner Bio-One North America, Monroe, NC) using a Multidrop Combi (Thermo Fisher Scientific Inc., Waltham, Massachusetts) at 2,500 cells/4 µL/well. The cell suspension was prepared using new assay media, which contained phenol red-free DMEM (GIBCO), 5% charcoal/dextran-treated FBS (Invitrogen), 1 mM sodium pyruvate (Invitrogen), 2 mM L-Glutamine (Invitrogen), and 100 U/mL of Penicillin and 100 μg/mL of Streptomycin (Invitrogen). All plates were then incubated for 4 h in a 37°C and 5% CO2 incubator. […] In the primary screen, each compound was tested at 7 concentrations ranging from 46 μM to 1.5 nM. 1 μL of rifampicin, a known PXR agonist, was also co-treated in each well, generating a final concentration of 2 μM, using a Flying Reagent Dispenser (Aurora Discovery, Carlsbad, California). All assay plates were placed in an incubator at 37°C with 5% CO2 for 23 h. Following the incubation period, 1 µL of CellTiter-Fluor reagent (Promega, Madison, Wisconsin) was added to each well and all assay plates were placed back into the incubator set at 37°C and 5% CO2 for 1 h. Fluorescence intensity at 540 nm was measured following excitation at 405 nm using a ViewLux plate reader (Perkin Elmer, Shelton, Connecticut), in order to assess cell viability following treatment. Directly after the fluorescent read, 4 μL of ONE-Glo Luciferase reagent (Promega, Madison, Wisconsin) was added to each well using a Flying Reagent Dispenser, and plates were left to sit at room temperature for 30 min. The luminescence of each plate was then measured using the ViewLux plate reader and data were expressed as relative luminescence units. Gross assay performance was assessed by calculating quality metrics, such as coefficient of variance (CV), signal-to-background ratio (S/B), and Z′ factor, a measure of statistical effect size frequently used to judge whether an assay can be scaled up to a large high-throughput screen ([Zhang et al., 1999]).
Each curve was co-treated with 5 μM RIF, 7.5 μM RIF, or 10 μM RIF (a well-known PXR agonist) to determine pharmacological activity. […] Each curve was generated from a combination of all data points together.

hPXR [2] = biological target: T1, hPXR; test: PXR luciferase reporter gene assay (qHTS antagonist mode, rifampicin co-treatment) in HepG2-CYP3A4-hPXR cells; type: cell-based; conditions: 2 μM rifampicin, used as treatment concentration in HepaRG cells
Procedure: HepG2 cells stably transfected with a CYP3A4-luc promoter construct and hPXR expression plasmid were provided by Dr. Taosheng Chen (Department of Chemical Biology and Therapeutics, St. Jude Children’s Research Hospital) ([Lin et al., 2008]). Cells were thawed in EMEM (ATCC, Rockville, Maryland), supplemented with 10% Hyclone FBS (GE Healthcare Life Sciences, Logan, Utah) and 100 U/mL of Penicillin and 100 μg/mL of Streptomycin (Invitrogen, Carlsbad, CA) and kept in an incubator at 37°C and 5% CO2. To culture these HepG2-CYP3A4-hPXR cells, 500 μg/mL of Geneticin (GIBCO, Gaithersburg, MD) was added to the thawing media.
as §1
Data analysis was completed using a previously described protocol ([Huang et al., 2016]). […] Normalized percent activity for all test compounds was determined using the following equation: % activity = [(V compound - V DMSO)/(V DMSO–V pos)] × 100, where V compound denotes the compound well values, V pos denotes the median value of the positive control wells, and V DMSO denotes the median value of the DMSO-only wells. Following normalization, data points were corrected using DMSO-only plates included at the beginning and end of the compound plate stack using an in-house pattern correction algorithm in order to remove background patterns, as well as other small abnormalities within the dataset ([Southall et al., 2009]). […] Efficacy is then [a inf - a 0 ]. a=a0+ainf−a0 c^n/k^n+c^n
Curve class was further converted to curve rank by combining each class with efficacy, such that good quality, efficacious curves are assigned large absolute curve rank values. […] The activity outcome was based on the PXR antagonist readout activity and a cell viability counter screen.

| SMILES | shift in IC50 values with increasing rifampicin (in words) (hPXR [1]) | decrease in potency (hPXR [1]) | IC50 (hPXR [1]; co-treated with 5 μM RIF) | IC50 (hPXR [1]; co-treated with 7.5 μM RIF) | IC50 (hPXR [1]; co-treated with 10 μM RIF) | IC70 values from the original NPACT screen (hPXR [2]) |
| --- | --- | --- | --- | --- | --- | --- |
| COc1cc(-c2cn(C3CCc4c(F)cccc4N(CC(F)(F)F)C3=O)nn2)ccc1-n1cnc(C)c1 (stereo not drawn) [GSM2] | generated a shift in IC50 values | more than 2 fold | 1.6 µM | 3.32 µM | 5.46 µM | 4 µM |
| CC(=O)O[C@H]1C[C@@]2(C)[C@@H](C[C@@H](O)[C@H]3[C@@]4(C)CC[C@@H](O)[C@@H](C)[C@@H]4CC[C@@]32C)/C1=C(\CCC=C(C)C)C(=O)O [fusidic acid] | generated a shift in IC50 values | more than 2 fold | 3.46 µM | 4.57 µM | 7.76 µM | 5 µM |
